`Cc1ccc(NC(=O)c2cccc(C(F)(F)F)c2)cc1/C=C/n1cnc2c(Nc3ccc(P(C)(C)=O)cc3)ncnc21` [Example 3, (E)-N-(3-(2-(6-(4-(Dimethylphosphoryl)phenylamino)-9H-purin-9-yl)vinyl)-4-methylphenyl)-3-(trifluoromethyl)benzamide] had a melting point of 230 to 234 °C.

With `Cc1ccc(C(=O)Nc2cccc(C(F)(F)F)c2)cc1/C=C/n1cnc2c(NC3CC3)ncnc21` [Example 5, (E)-3-(2-(6-(Cyclopropylamino)-9H-purin-9-yl)vinyl)-4-methyl-N-(3-(trifluoromethyl)phenyl)benzamide], the melting point was 201 °C. As for `Cc1ccc(NC(=O)Nc2cccc(C(F)(F)F)c2)cc1/C=C/n1cnc2c(NC3CC3)ncnc21` [Example 6, (E)-1-(3-(2-(6-(Cyclopropylamino)-9H-purin-9-yl)vinyl)-4-methylphenyl)-3-(3-(trifluoromethyl)phenyl)urea], the melting point lay in the range of 160 to 162 °C.

Values taken from patent US8586566B2, “Unsaturated heterocyclic derivatives” (ARIAD Pharmaceuticals, Inc., priority 2005, dated 2013).
